The target in the assay is Metabotropic glutamate receptor 2 (Homo sapiens) (UniProt Q14416). Briefly: Negative allosteric modulation of human mGluR2 receptor expressed in CHO cell membranes assessed as inhibition of glutamate responses after 30 mins by [35S]GTPgammaS binding assay. Type of assay: functional.
Metabotropic glutamate receptor 2 (Homo sapiens), sequence (Q14416 19-872 limits assumed): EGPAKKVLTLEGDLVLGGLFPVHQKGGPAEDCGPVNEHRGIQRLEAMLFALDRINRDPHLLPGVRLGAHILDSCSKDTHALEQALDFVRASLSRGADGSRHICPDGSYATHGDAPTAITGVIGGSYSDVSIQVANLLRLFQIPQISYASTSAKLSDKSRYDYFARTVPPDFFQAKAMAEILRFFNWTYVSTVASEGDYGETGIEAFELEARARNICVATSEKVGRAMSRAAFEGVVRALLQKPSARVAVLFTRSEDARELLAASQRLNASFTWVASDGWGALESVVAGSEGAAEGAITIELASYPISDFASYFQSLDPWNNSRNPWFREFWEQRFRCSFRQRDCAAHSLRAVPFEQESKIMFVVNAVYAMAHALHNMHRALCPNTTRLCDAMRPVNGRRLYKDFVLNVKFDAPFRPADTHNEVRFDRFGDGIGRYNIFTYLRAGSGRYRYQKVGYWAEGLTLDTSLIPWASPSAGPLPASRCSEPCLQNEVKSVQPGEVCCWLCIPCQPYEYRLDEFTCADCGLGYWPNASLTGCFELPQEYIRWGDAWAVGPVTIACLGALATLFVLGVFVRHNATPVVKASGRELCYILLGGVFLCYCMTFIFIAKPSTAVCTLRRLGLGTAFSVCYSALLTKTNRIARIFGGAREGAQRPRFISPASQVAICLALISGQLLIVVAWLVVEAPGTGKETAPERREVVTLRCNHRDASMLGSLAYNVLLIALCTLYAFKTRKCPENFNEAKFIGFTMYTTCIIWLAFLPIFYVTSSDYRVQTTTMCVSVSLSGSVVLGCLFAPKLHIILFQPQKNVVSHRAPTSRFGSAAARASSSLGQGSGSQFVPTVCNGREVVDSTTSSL
For `C[C@H]1CN(c2ccc(C(F)(F)F)c(Cl)c2)C(=O)c2c(-c3ccnc(C#N)c3)cnn21`, the Emax was 109%. In the case of `Cc1cc(-c2cnn3c2C(=O)N(c2ccc(C(C)O)cc2)C[C@@H]3C)ccn1` (some centres undefined) it was 49%; in that of `CCC1CN(c2ccc(C(F)(F)F)cc2)C(=O)c2c(-c3ccnc(C)c3)cnn21` (centres undefined), 106%; in that of `Cc1cc(-c2cnn3c2C(=O)N(c2ccc(C(F)(F)F)cc2)C[C@@H]3C)ccn1`, 106%.

For the origin of these results see ChEMBL document CHEMBL3421584, “Allosteric modulators: an emerging concept in drug discovery” (ACS Med Chem Lett, 2015).
